Paper PMC8397297 (ACS Chemical Neuroscience, 2021)

Tests used:
[1] = target: T1, mGAT3 (Mus musculus, UniProt P31649); assay: [3H]GABA uptake assay in HEK-293 cells stably expressing mGAT3; format: cell-based; details: for IC50: [3H]GABA uptake, read-out: pIC50 ± SEM mGAT3 (converted)
T1 construct: expressed in transfected cells; host or cells: HEK-293
T1 sequence (P31649 1-602): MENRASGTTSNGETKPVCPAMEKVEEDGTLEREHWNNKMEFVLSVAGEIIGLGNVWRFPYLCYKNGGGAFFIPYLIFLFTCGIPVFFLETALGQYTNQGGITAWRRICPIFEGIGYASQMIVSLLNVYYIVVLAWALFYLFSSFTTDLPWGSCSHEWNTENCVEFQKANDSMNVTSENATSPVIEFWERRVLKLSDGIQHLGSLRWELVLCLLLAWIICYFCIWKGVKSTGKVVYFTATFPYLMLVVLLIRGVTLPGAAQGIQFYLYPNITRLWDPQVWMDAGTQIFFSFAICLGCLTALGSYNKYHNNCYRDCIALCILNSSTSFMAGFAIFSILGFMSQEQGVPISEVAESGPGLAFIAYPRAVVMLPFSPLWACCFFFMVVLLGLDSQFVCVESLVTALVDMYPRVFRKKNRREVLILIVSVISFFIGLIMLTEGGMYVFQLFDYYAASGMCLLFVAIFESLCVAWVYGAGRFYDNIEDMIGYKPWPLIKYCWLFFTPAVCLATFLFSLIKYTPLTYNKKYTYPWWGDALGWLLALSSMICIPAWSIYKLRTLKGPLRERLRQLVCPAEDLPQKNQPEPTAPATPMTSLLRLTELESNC

[2] = target: T2, mGAT1 (Mus musculus, UniProt P31648); assay: [3H]GABA uptake assay in HEK-293 cells stably expressing mGAT1; format: cell-based; details: for IC50: [3H]GABA uptake, read-out: pIC50 ± SEM mGAT1 (converted); for remaining [3H]GABA uptake mGAT1: in the presence of 100 μM inhibitor
T2 construct: expressed in transfected cells; host or cells: HEK-293

[3] = target: T2, mGAT1; assay: competitive MS binding assay with NO711 as unlabeled marker (LC-ESI-MS/MS); details: for remaining NO711 binding mGAT1: in the presence of 100 μM inhibitor
Method: Specific binding affinity toward mGAT1 was determined via a competitive mass spectrometry (MS) binding assay quantified by liquid chromatography–electrospray ionization tandem mass spectrometry (LC–ESI-MS/MS) with NO711 as an unlabeled marker.[50]
MS binding assays for mGAT1 were performed as described earlier.[50] Inhibition of mGAT1 binding by the synthesized compounds was determined in MS binding assays at a screening concentration of 100 μM and analyzed by LC–ESI-MS/MS.

[4] = target: T3, mGAT2 (Mus musculus, UniProt P31651); assay: [3H]GABA uptake assay in HEK-293 cells stably expressing mGAT2; format: cell-based; details: for IC50: [3H]GABA uptake, read-out: pIC50 ± SEM mGAT2 (converted)
T3 construct: expressed in transfected cells; host or cells: HEK-293
T3 sequence (P31651 1-614): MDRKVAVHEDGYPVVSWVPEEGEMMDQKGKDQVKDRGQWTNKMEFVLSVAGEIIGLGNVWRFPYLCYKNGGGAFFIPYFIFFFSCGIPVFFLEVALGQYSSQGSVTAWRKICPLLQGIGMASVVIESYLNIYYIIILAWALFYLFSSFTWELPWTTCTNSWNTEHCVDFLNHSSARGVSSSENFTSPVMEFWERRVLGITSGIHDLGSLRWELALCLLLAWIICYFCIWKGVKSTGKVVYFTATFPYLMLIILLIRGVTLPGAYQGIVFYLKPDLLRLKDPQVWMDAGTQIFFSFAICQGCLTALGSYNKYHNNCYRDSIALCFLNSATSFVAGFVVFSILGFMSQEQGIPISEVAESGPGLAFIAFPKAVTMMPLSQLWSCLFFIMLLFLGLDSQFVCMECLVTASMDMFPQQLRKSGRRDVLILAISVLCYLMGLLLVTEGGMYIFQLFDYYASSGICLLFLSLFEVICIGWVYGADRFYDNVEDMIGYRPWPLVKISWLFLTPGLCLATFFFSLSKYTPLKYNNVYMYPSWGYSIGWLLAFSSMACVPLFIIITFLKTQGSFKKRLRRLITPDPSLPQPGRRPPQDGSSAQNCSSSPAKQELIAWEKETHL

[5] = target: T4, mGAT4 (Mus musculus, UniProt P31650); assay: [3H]GABA uptake assay in HEK-293 cells stably expressing mGAT4; format: cell-based; details: for IC50: [3H]GABA uptake, read-out: pIC50 ± SEM mGAT4 (converted)
T4 construct: expressed in transfected cells; host or cells: HEK-293
T4 sequence (P31650 1-627): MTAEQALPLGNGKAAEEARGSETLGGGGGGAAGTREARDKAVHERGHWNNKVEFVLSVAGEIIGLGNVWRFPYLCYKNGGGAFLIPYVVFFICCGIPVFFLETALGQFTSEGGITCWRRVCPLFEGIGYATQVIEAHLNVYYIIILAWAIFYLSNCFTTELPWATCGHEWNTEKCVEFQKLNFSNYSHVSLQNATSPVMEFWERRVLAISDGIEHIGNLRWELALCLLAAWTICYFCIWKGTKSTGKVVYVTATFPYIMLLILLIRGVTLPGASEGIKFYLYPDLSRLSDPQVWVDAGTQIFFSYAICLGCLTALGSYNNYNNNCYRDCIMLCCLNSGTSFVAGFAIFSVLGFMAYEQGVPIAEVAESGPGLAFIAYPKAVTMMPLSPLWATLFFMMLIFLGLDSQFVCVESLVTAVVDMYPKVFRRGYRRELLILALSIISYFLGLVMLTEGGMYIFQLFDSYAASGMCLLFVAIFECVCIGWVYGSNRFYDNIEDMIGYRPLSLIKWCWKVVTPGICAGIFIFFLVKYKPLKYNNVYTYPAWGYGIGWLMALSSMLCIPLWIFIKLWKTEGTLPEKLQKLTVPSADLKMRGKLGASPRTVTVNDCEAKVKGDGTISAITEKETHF

[6] = in the presence of 100 μM inhibitor

SMILES | IC50 [1] [µM] | IC50 [2] [µM] | remaining NO711 binding mGAT1 [3] | IC50 [4] [µM] | IC50 [5] [µM] | remaining [3H]GABA uptake mGAT1 [2] | Ki ([3]; MS binding assay, read-out: pKi ± SEM mGAT1 (converted)) [µM] | remaining [3H]GABA uptake mGAT3 [1, 6] | remaining [3H]GABA uptake mGAT2 [4, 6] | remaining [3H]GABA uptake mGAT4 [5, 6]
Cc1ccsc1C(=C1CCN(C(CO)C(=O)NCc2ccccc2)CC1)c1sccc1C (stereo not shown) [Compound 54a, N-Benzyl-2-{4-[bis(3-methylthiophen-2-yl)methylidene]piperidin-1-yl}-3-hydroxypropanamide] | 16.2 | 15.1 | 100 μM: 86% | 16.6 | 44.7 | – | – | – | – | –
Cc1ccsc1C(=C1CCN(C(CO)C(=O)NCc2ccccc2Cl)CC1)c1sccc1C (stereo not shown) [Compound 54b, 2-{4-[Bis(3-methylthiophen-2-yl)methylidene]piperidin-1-yl}-N-[(2-chlorophenyl)methyl]-3-hydroxypropanamide] | 63.1 | – | 100 μM: 100% | 43.7 | 95.5 | 100 μM: 53% | – | – | – | –
Cc1ccsc1C(=C1CCN(C(CO)C(=O)NCc2ccc(F)cc2)CC1)c1sccc1C (stereo not shown) [Compound 54c, 2-{4-[Bis(3-methylthiophen-2-yl)methylidene]piperidin-1-yl}-N-[(4-fluorophenyl)methyl]-3-hydroxypropanamide] | 16.2 | 17 | 100 μM: 96% | 13.8 | 28.8 | – | – | – | – | –
CN(CCC=C1c2ccccc2C=Cc2ccccc21)C(CO)C(=O)NCc1ccccc1 (stereo not shown) [Compound 55a, 2-((3-(5H-Dibenzo[a,d][7]annulen-5-ylidene)propyl)(methyl)amino)-N-benzyl-3-hydroxypropanamide] | 15.8 | 17.4 | 100 μM: 83% | 26.3 | 8.32 | – | – | – | – | –
CN(CCC=C1c2ccccc2C=Cc2ccccc21)C(CO)C(=O)NCc1ccccc1Cl (stereo not shown) [Compound 55b, 2-((3-(5H-Dibenzo[a,d][7]annulen-5-ylidene)propyl)(methyl)amino)-N-(2-chlorobenzyl)-3-hydroxypropanamide] | 10.7 | 25.7 | 100 μM: 65% | 15.8 | 9.55 | – | – | – | – | –
CN(CCC=C1c2ccccc2C=Cc2ccccc21)C(CO)C(=O)NCc1ccc(Cl)cc1 (stereo not shown) [Compound 55c, 2-((3-(5H-Dibenzo[a,d][7]annulen-5-ylidene)propyl)(methyl)amino)-N-(4-chlorobenzyl)-3-hydroxypropanamide] | 15.1 | 28.8 | 100 μM: 49% | 60.3 | 16.6 | – | – | – | – | –
CN(CCC=C1c2ccccc2C=Cc2ccccc21)C(CO)C(=O)NCc1ccc(F)cc1 (stereo not shown) [Compound 55d] | 10.5 | 26.3 | 100 μM: 90% | 20.4 | 17 | – | – | – | – | –
Cc1ccc(CNC(=O)C(CO)N(C)CCC=C2c3ccccc3C=Cc3ccccc32)cc1 (stereo not shown) [Compound 55e, 2-((3-(5H-Dibenzo[a,d][7]annulen-5-ylidene)propyl)(methyl)amino)-N-(4-methylbenzyl)-3-hydroxypropanamide] | 15.8 | 26.9 | – | 21.4 | 13.2 | – | 29.5 | – | – | –
CN(CCC=C1c2ccccc2CCc2ccccc21)C(CO)C(=O)NCc1ccccc1Cl (stereo not shown) [Compound 56b, N-(2-Chlorobenzyl)-2-((3-(10.11-dihydro-5H-dibenzo[a,d][7]annulen-5-ylidene)propyl)(methyl)amino)-3-hydroxypropanamide] | 10.5 | – | 100 μM: 86% | 25.7 | 27.5 | 100 μM: 50% | – | – | – | –
CN(CCC=C1c2ccccc2CCc2ccccc21)C(CO)C(=O)NCc1ccc(Cl)cc1 (stereo not shown) [Compound 56c, N-(4-Chlorobenzyl)-2-((3-(10,11-dihydro-5H-dibenzo[a,d][7]annulen-5-ylidene)propyl)(methyl)amino)-3-hydroxypropanamide] | 14.5 | 61.7 | 100 μM: 87% | 29.5 | 10.2 | – | – | – | – | –
CN(CCC=C1c2ccccc2CCc2ccccc21)C(CO)C(=O)NCc1ccc(F)cc1 (stereo not shown) [Compound 56d, N-(4-Fluorobenzyl)-2-((3-(10,11-dihydro-5H-dibenzo[a,d][7]annulen-5-ylidene)propyl)(methyl)amino)-3-hydroxypropanamide] | 12.9 | 17.8 | 100 μM: 96% | 21.4 | 12.3 | – | – | – | – | –
O=C(NCc1ccccc1)C(CO)N1CCC(=C2c3ccccc3-c3ccccc32)CC1 (stereo not shown) [Compound 57, N-Benzyl-2-[4-(9H-fluoren-9-ylidene)piperidin-1-yl]-3-hydroxypropanamide] | 69.2 | 24.5 | 100 μM: 84% | 17.8 | 36.3 | – | – | – | – | –
O=C(NCc1ccccc1)C(CO)N1CCC(=C2c3ccccc3CCc3ccccc32)CC1 (stereo not shown) [Compound 58, N-Benzyl-2-(4-(10,11-dihydro-5H-dibenzo[a,d][7]annulen-5-ylidene)piperidin-1-yl)-3-hydroxypropanamide] | 20.9 | 35.5 | 100 μM: 83% | 22.4 | 23.4 | – | – | – | – | –
CN(CCON=C(c1ccccc1)c1ccccc1)C(CO)C(=O)NCc1ccccc1 (stereo not shown) [Compound 59a, N-Benzyl-2-((2-(((diphenylmethylene)amino)oxy)ethyl)(methyl)amino)-3-hydroxypropanamide] | 58.9 | 22.9 | 100 μM: 80% | 22.9 | 26.9 | – | – | – | – | –
CN(CCON=C(c1ccccc1)c1ccccc1)C(CO)C(=O)NCc1ccccc1Cl (stereo not shown) [Compound 59b] | 15.8 | 44.7 | 100 μM: 92% | 12.9 | 12.9 | – | – | – | – | –
CN(CCON=C(c1ccccc1)c1ccccc1)C(CO)C(=O)NCc1ccc(F)cc1 (stereo not shown) [Compound 59c, 2-((2-(((Diphenylmethylene)amino)oxy)ethyl)(methyl)amino)-N-(4-fluorobenzyl)-3-hydroxypropanamide] | 19.5 | 26.3 | 100 μM: 84% | 17 | 16.6 | – | – | – | – | –
CCC(C(=O)NCc1ccccc1)N1CCC(=C(c2sccc2C)c2sccc2C)CC1 (stereo not shown) [Compound 64a, N-Benzyl-2-(4-(bis(3-methylthiophen-2-yl)methylene)piperidin-1-yl)butanamide] | – | 7.08 | 100 μM: 81% | – | – | – | – | 100 μM: 69% | 100 μM: 108% | 100 μM: 77%
